Source: patent US5939094A (priority 1996, dated 1999)
Read-outs that look alike come from different tables or passages of the source.

Tests used:
[1] = Description: Human skin samples were obtained from white female patients undergoing breast reduction surgery and prepared for in vitro permeation studies. Samples were stratum corneum from breasts of patients (Sample A) and (Samples B & C). A 2.0 cm^2 section of the skin tissue was placed in a Franz cell holder and maintained under phosphate buffered saline (PBS: 0.01M phosphate, 0.9% NaCl, pH 6.0) until testing. PBS (6.8 to 7.3 ml) was placed on the receptor side of the Franz cell. […] The cell was incubated at 35±1° C. A 250 μl sample was taken from the receptor medium at the following times: 0, 1/2, 1, 2, 4, and 6 hours. An equal volume of PBS was replaced each time a sample was withdrawn.
Samples were pre-filtered (0.45 μm) prior to injection. Samples (50 μl) were injected on an Altima (Alltech Associates) C18 column (15 cm×4.3 mm) with guard column. The mobile phase consisted of a 60:40 mixture of 5 mM sodium dodecylsulfate in 1 mM NH4 PO4 buffer, pH 3.0 and acetonitrile.

skin = conditions: rabbit, in vivo, 0.5 mg/kg
[2] = rabbit
[3] = man, cited from earlier work
[4] = administered in a cream; cited from earlier work
[5] = cited from earlier work
in vivo = conditions: rabbit, 0.5 mg/kg; for AUC: AUC (area under the concentration vs time curve); for MRT: MRT (mean residence time)
[6] = emulsions with apomorphine HCl and acrylic acid polymer gels, pH 7.6
Parkinson's disease = conditions: chronic oral levodopa, after initial 3-6 years; cited from earlier work
[7] = in vivo, topical or ocular, 0.5 mg/kg
[8] = subcutaneous, 0.5 mg/kg, n=6, mean
[9] = sc, model-dependent, subcutaneous, n=6, mean
[10] = topical or ocular, model-independent

Compound: CN1CCc2cccc3c2[C@H]1Cc1ccc(O)c(O)c1-3 [Apomorphine, apomorphine]
- FLUX, AVERAGE [1]: 1.61 μg/cm^2 /hr
- In vitro transdermal permeation, TIME 0 hours [1]: 0
- In vitro transdermal permeation, TIME 0 hours, AVERAGE [1]: 0
- In vitro transdermal permeation, TIME 0.5 hours, AVERAGE [1]: 0.44
- In vitro transdermal permeation, TIME 1 hour, AVERAGE [1]: 2.05
- In vitro transdermal permeation, TIME 2 hours, AVERAGE [1]: 2.93
- In vitro transdermal permeation, TIME 4 hours, AVERAGE [1]: 7.03
- In vitro transdermal permeation, TIME 6 hours, AVERAGE [1]: 6.30
- local adverse effect (skin): No local adverse effect
- Time for absorption of 10% of the drug ([2]; in vivo): 11.4 ± 3.4 min
- Time for absorption of 50% of the drug ([2]; in vivo): 105.7 ± 23.9 min
- absorption of the drug after percutaneous administration ([2]; in vivo, 0.5 mg/kg): absorption of the drug in all tested animals
- bioequivalence (F) of percutaneous route vs subcutaneous administration ([2]; in vivo, 0.5 mg/kg): 35%
- duration of the first, rapid absorption phase ([2]; in vivo, 0.5 mg/kg): 1 h
- plasma concentration between the fourth and the fifth hour ([2]; in vivo, 0.5 mg/kg): an increase in the plasma concentration
- plasma levels after removal of the gel ([2]; in vivo, 0.5 mg/kg): decreased
- time until which absorption persisted ([2]; in vivo, 0.5 mg/kg): 450 min
- Time for absorption of 10% of the drug ([2]; in vivo, sc): 4.0 ± 0.7 min
- Time for absorption of 50% of the drug ([2]; in vivo, sc): 19.9 ± 2.9 min
- absorption of the available amount of the drug after 150 minutes ([2]; in vivo, sc, 0.5 mg/kg): practically complete
- k12 (transfer rate constant) ([2]; in vivo, sc, 0.5 mg/kg): 0.005 L/min
- k13 (transfer rate constant) ([2]; in vivo, sc, 0.5 mg/kg): 0.057 L/min
- k21 (transfer rate constant) ([2]; in vivo, sc, 0.5 mg/kg): 0.027 L/min
- ka (exponent of the fitted function) ([2]; in vivo, sc, 0.5 mg/kg): 0.088 L/min
- tmax (time to peak plasma concentration) ([2]; in vivo, sc, 0.5 mg/kg): 25.8 ± 4.9 min
- α (exponent of the fitted function) ([2]; in vivo, sc, 0.5 mg/kg): 0.044 L/min
- plasma level plateau [2, 7]: 10 to 15 ng/mL
- stable mean plasma level after the second hour [2, 7]: 10 ng/mL
- tmax (time to peak plasma concentration) [2, 7]: 29.4 ± 7.8 min
- Cl, comparison of routes ([2]; subcutaneous vs percutaneous, 0.5 mg/kg): not different between the two routes
- A (coefficient of the fitted function) [2, 8]: 712 ng/mL
- B (coefficient of the fitted function) [2, 8]: 298 ng/mL
- C0 (coefficient of the fitted function) [2, 8]: 1,010 ng/ml
- Vd (mean) ([3]; i.v. injection): 2 L/kg
- Vd (mean) ([3]; subcutaneous injection): 2 L/kg
- tmax (range) ([3]; subcutaneous injection): 7 to 16 min
- plasma levels of apomorphine [4]: No detectable plasma levels
- duration of action ([5]; Parkinson's disease, movement disorders): short duration of action
- adverse effects of oral or sublingual administration ([5]; oral or sublingual): stomatitis, and the development of buccal ulcers
- breakdown in the liver ([5]; oral or sublingual): breakdown of the drug in the liver
- CL/F (in vivo; sc): 31 ± 5 mL/min/kg
- Cmax (in vivo; sc): 331 ± 46 ng/mL
- Tmax (in vivo; sc): 25.8 min
- concentration at 4 h (in vivo; sc): 3 ± 1 ng/mL
- k el (in vivo; sc): 0.00035 s⁻¹
- AUC (in vivo; [9]): 309 ng·h/mL
- AUC (in vivo; sc, model-independent): 297 ng·h/mL
- MRT (in vivo; [9]): 52 min
- MRT (in vivo; sc, model-independent): 50 min
- Vd/F (in vivo; sc, Vd (apparent volume of distribution)): 1.45 ± 0.12 L/kg
- Vd/F (in vivo; sc, Vdss, model-dependent): 1.1 ± 0.3 L/kg
- CL/F (in vivo; topical or ocular): 37 ± 1 mL/min/kg
- Cmax (in vivo; topical or ocular): 56 ± 12 ng/mL
- Tmax (in vivo; topical or ocular): 29.4 min
- k el (in vivo; topical or ocular): 0.000233 s⁻¹
- AUC (in vivo; [10]): 104 ng·h/mL
- MRT (in vivo; [10]): 168 min
- Vd/F (in vivo; topical or ocular, Vd (apparent volume of distribution)): 2.72 ± 0.36 L/kg

Compound: N[C@@H](CCC(=O)N[C@@H](CS)C(=O)NCC(=O)O)C(=O)O [glutathione]
- antioxidant suitability for apomorphine HCl emulsions and gels [6]: acceptable antioxidant

Compound: N[C@@H](Cc1ccc(O)c(O)c1)C(=O)O [levodopa]
- patients with movement abnormalities (Parkinson's disease): 40-60 % of patients
